Laboratory results taken from US20140155445A1, “Compounds and Methods for Treating Cancer and Diseases of the Central Nervous System” (Osta Biotechnologies Inc., priority 2007, published 2014).
Structures can show the parent of a compound that is named as a salt. Where two headings read alike, the source gives them in different places.

Columns and labels:
HO-1 (rat spleen) = target: T1, HO-1 (rat spleen) (Rattus norvegicus, UniProt P06762); assay: HO enzymatic activity in rat spleen microsomal fraction (CO formed from methemalbumin, gas chromatography); assay type: biochemical
T1 construct: Spleen microsomes were used as a source of HO-1; from tissue; host or cells: spleen microsomal fraction of adult male Sprague-Dawley rats
T1 sequence (P06762 1-289): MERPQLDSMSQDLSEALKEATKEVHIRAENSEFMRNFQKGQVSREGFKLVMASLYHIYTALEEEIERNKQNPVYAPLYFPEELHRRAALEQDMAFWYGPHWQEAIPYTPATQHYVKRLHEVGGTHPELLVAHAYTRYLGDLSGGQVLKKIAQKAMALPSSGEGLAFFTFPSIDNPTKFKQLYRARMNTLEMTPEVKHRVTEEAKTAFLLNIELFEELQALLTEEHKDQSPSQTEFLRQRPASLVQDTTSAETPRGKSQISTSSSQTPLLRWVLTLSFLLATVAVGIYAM

HO-2 (rat brain) = target: T2, HO-2 (rat brain) (Rattus norvegicus, UniProt P23711); assay: HO enzymatic activity in rat brain microsomal fraction (CO formed from methemalbumin, gas chromatography); assay type: biochemical
T2 construct: brain microsomes were used as a source of HO-2; from tissue; host or cells: brain microsomal fraction of adult male Sprague-Dawley rats
T2 sequence (P23711 1-315): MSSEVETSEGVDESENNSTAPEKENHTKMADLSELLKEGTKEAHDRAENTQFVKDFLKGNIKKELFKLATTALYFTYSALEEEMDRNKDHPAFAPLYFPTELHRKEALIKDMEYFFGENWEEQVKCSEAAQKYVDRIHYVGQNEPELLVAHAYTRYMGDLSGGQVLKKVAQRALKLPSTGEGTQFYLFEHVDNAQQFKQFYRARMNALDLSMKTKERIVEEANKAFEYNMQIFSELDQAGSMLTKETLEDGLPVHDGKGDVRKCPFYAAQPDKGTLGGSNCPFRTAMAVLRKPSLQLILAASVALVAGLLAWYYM

[1] = rat spleen microsomes, average ± standard deviation of replicate experiments, read-out: IC50 HO-1 (rat spleen)/μM
[2] = rat brain microsomes, average ± standard deviation of replicate experiments, read-out: IC50 HO-2 (rat brain)/μM

| SMILES | IC50 (HO-1 (rat spleen); [1]) [µM] | IC50 (HO-2 (rat brain); [2]) [µM] | other results |
| --- | --- | --- | --- |
| O=C(Cn1ccnc1)c1ccc(CCc2ccccc2)cc1 [2-imidazol-1-yl-1-(4-phenethyl-phenyl)ethanone hydrochloride] | 4 ± 2 | 0.9 ± 0.1 | – |
| NCC(=O)c1ccc(Br)cc1 | – | – | IC50 (HO-1 (rat spleen)): > 100 µM; IC50 (HO-2 (rat brain)): > 100 µM |
| Brc1ccc(C2(Cn3ccnc3)OCCO2)cc1 [1-[2-(4-bromo-phenyl)-[1,3]dioxolan-2-ylmethyl]-1H-imidazole hydrochloride] | 12 ± 2 | > 100 | – |
| Cc1nccn1CC(=O)CCc1ccc(Cl)cc1.Cl | – | – | IC50 HO-1 (rat spleen)/μM (HO-1 (rat spleen); rat spleen microsomes, average ± standard deviation of replicate experiments): INACTIVE; IC50 HO-2 (rat brain)/μM (HO-2 (rat brain); rat brain microsomes, average ± standard deviation of replicate experiments): INACTIVE |
| Clc1ccc(CC[C@@]2(Cn3ccnc3)OCC(COc3ccc(I)cc3)O2)cc1 (stereo in doubt) [(2R,4S)-1-[2-[2-(4-chloro-phenyl)-ethyl]-4-(4-iodo-phenoxymethyl)-[1,3]dioxolan-2-ylmethyl]-1H-imidazole hydrochloride] | 9 ± 3 | 15 ± 4 | – |
| Cc1ccc(CCC(=O)Cn2ccnc2)cc1 [1-Imidazol-1-yl-4-(4-methylphenyl)butan-2-one hydrochloride] | 0.76 ± 0.01 | 3.7 ± 0.1 | – |
| c1ccc(CCC2(Cn3cnc(-c4ccccc4)c3)OCCO2)cc1 [1-(2-Phenethyl-[1,3]dioxolan-2-ylmethyl)-4-phenyl-1H-imidazole hydrochloride] | > 100 | > 100 | – |
| FC(F)(F)c1ccc(SC[C@@H]2CO[C@@](CCc3ccc(Cl)cc3)(Cn3ccnc3)O2)nc1 [(2R,4S)-2-[2-(4-chlorophenyl)ethyl]-2-[(1H-imidazol-1-yl)methyl]-4[{(5-trifluoromethyl-pyridin-2-yl)ethio}methyl]-1,3-dioxolane hydrochloride] | 2.1 ± 0.6 | 16 ± 8 | – |
| O=C(Cn1ccnc1)c1ccc(-c2ccc(Br)cc2)cc1 [1-(4′-bromo-biphenyl-4-yl)-2-imidazol-1-yl-ethanone] | 1.5 ± 0.5 | 0.43 ± 0.07 | – |
| c1ccc2[nH]cnc2c1 [Benzimidazole, reference compound] | > 100 | > 100 | – |
| O=C(Cn1cncn1)c1cc(Cl)ccc1Cl [1-(2,5-Dichloro-phenyl)-2-[1,2,4]triazol-1-yl-ethanone] | 18.4 ± 0.5 | > 100 | – |
| Clc1ccc(CC[C@@]2(Cn3ccnc3)OC[C@@H](CSc3ccccc3)O2)cc1 [(2R,4S)-2-[2-(4-chlorophenyl)ethyl]-2-[(1H-imidazol-1-yl)methyl]-4-[(phenylthio)methyl]-1,3-dioxolane hydrochloride] | 1.03 ± 0.07 | 34 ± 12 | – |
| CC(C)c1ccc(CCC(=O)Cn2ccnc2)cc1 [1-Imidazol-1-yl-4-(4-isopropyl-phenyl)-butan-2-one hydrochloride] | 0.163 ± 0.009 | 0.9 ± 0.2 | – |
| Nc1ccccc1SC[C@H]1CO[C@](CCc2ccc(Cl)cc2)(Cn2ccnc2)O1 [(2S,4R)-2-[2-(4-chlorophenyl)ethyl]-2-[(1H-imidazol-1-yl)methyl]-4-[{(2-aminophenyl)thio}meth-yl]-1,3-dioxolane hydrochloride] | ~4.2 | > 100 | – |
| O=C(CCc1ccc(OC(=O)c2ccccc2)cc1)Cn1ccnc1 [4-(4-(1H-Imidazol-1-yl)-3-oxobutyl)phenyl benzoate hydrochloride] | 6.7 ± 0.2 | > 100 | – |
| O=C(Cc1ccccc1)C(Cn1ccnc1)c1ccccc1 (racemic) [(±)-4-(1H-imidazol-1-yl)-1,3-diphenyl-butan-2-one hydrochloride] | 3.85 ± 0.07 | > 100 | – |
| CSC[C@@H]1CO[C@@](CCc2ccc(Cl)cc2)(Cn2ccnc2)O1 [(2R,4S)-2-[2-(4-chlorophenyl)ethyl]-2-[(1H-imidazol-1-yl)methyl]-4-[(methylthio)methyl]-1,3-dioxolane hydrochloride] | 9 ± 2 | 19 ± 7 | – |
| Clc1ccc(CC[C@@]2(Cn3ccnc3)OC[C@@H](CSc3ccccc3Br)O2)cc1 [(2R,4S)-1-{4-(2-bromo-phenylsulfanylmethyl)-2-[2-(4-chloro-phenyl)-ethyl]-[1,3]dioxolan-2-ylmethyl}-1H-imidazole hydrochloride] | 6 ± 1 | 12.3 ± 0.5 | – |
